For 52 compounds, IC50 results are on record in patent US20250171459A1, “2-METHYL-4',5'-DIHYDROSPIRO[PIPERIDINE-4,7'-THIENO[2,3-C]PYRAN] DERIVATIVES AS INHIBITORS OF APOL1 AND METHODS OF USING SAME” (Vertex Pharmaceuticals Incorporated, priority 2022, published 2025).

The experiment has as its target T1, APOL1 (Homo sapiens, UniProt O14791).
T1 sequence (O14791 1-398 S342G/I384M): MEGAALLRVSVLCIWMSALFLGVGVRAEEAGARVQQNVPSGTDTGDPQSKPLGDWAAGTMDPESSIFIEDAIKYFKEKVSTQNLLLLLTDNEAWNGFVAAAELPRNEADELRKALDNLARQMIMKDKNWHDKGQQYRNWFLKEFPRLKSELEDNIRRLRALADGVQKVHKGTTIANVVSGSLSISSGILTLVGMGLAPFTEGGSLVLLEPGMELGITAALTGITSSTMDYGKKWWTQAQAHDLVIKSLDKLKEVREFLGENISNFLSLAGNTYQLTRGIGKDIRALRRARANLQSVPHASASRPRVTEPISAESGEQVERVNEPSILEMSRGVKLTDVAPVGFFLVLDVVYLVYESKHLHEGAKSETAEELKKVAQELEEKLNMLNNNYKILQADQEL
The experiment is described as follows: MultiTox-Fluor Multiplex Cytotoxicity Assay in tet-inducible APOL1 T-REx-HEK293 cells (cell rescue, ratio of dead to live cells). The experiment is classed as cell-based. Particulars: tet-inducible transgenic APOL1 T-REx-HEK293 cell lines, 50 ng/mL tet, 24 hours; read-out: IP50 (i.e., IC50 for cell proliferation). Summed up: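 T-REx-HEK293 cells with tet-inducible APOL1 were treated with compound (10 μM top, 10-point 3-fold dilution, duplicate) plus 50 ng/mL tetracycline for 24 h at 37° C, in DMEM with 2% tet-free FBS. MultiTox-Fluor protease signals gave a dead/live ratio, normalized to no tet (100% viability) and tet alone (0%).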
For the compound `CCc1cc2c(s1)CCO[C@@]21CCN(Cc2ccon2)[C@@H](C)C1` [Compound 279, (2′S,4R)-2-ethyl-1′-(isoxazol-3-ylmethyl)-2′-methyl-spiro[6,7-dihydrothieno[3,2-c]pyran-4,4′-piperidine]], the IC50 was under 100 nM.
On to `CCc1cc2c(s1)CCO[C@@]21CCN(CC(O)CC#N)[C@@H](C)C1` (stereo partly shown) [Compound 280], for which the IC50 was in the range of 100 to 500 nM.
Take `CCc1cc2c(s1)CCO[C@@]21CCN(CC(O)CO)[C@@H](C)C1` (stereo partly shown) [Compound 281]: the IC50 was in the range of 100 to 500 nM.
With `CCc1cc2c(s1)CCO[C@@]21CCN(CC(O)CO)[C@@H](C)C1` (stereo partly shown) [Compound 282] the figure was 500 to 1000 nM; with `CCc1cc2c(s1)CCO[C@@]21CCN(CC(=O)OC)[C@@H](C)C1` [Compound 283], 500 to 1000 nM; with `CCc1cc2c(s1)CCO[C@@]21CCN(Cc2ncco2)[C@@H](C)C1` [Compound 284], 500 to 1000 nM.
Take `CCc1cc2c(s1)CCO[C@@]21CCN(CCn2cccn2)[C@@H](C)C1` [Compound 286]: the IC50 lay within 500 to 1000 nM.
As for `CCc1cc2c(s1)CCO[C@@]21CCN(Cc2cc(C)on2)[C@@H](C)C1` [Compound 287], the figure is under 100 nM; as for `CCc1cc2c(s1)CCO[C@@]21CCN(Cc2c[nH]c(C)n2)[C@@H](C)C1` [Compound 288], under 100 nM; as for `CCc1cc2c(s1)CCO[C@@]21CCN(CC)[C@@H](C)C1` [Compound 289], 100 to 500 nM.
With `CCc1cc2c(s1)CCO[C@@]21CCN(CC(=O)C(C)(C)C)[C@@H](C)C1` [Compound 290] the figure was 500 to 1000 nM; with `CCc1cc2c(s1)CCO[C@@]21CCN(Cc2nc3ccccc3[nH]2)[C@@H](C)C1` [Compound 291], 100 to 500 nM.
As for `CCc1cc2c(s1)CCO[C@@]21CCN(CC#N)[C@@H](C)C1` [Compound 292], the figure is 100 to 500 nM; as for `CCc1cc2c(s1)CCO[C@@]21CCN(Cc2ncon2)[C@@H](C)C1` [Compound 293], 500 to 1000 nM; as for `CCc1cc2c(s1)CCO[C@@]21CCN(CC(F)F)[C@@H](C)C1` [Compound 294], 500 to 1000 nM.
On to `CCc1cc2c(s1)CCO[C@@]21CCN([C@@H]2CC[C@H](NC(=O)OC(C)(C)C)C2)[C@@H](C)C1` [Compound 295], for which the IC50 was 100 to 500 nM.
With `CCc1cc2c(s1)CCO[C@@]21CCN([C@H]2C[C@H](NC(=O)OC(C)(C)C)C2)[C@@H](C)C1` [Compound 297] the figure was 500 to 1000 nM; with `CCc1cc2c(s1)CCO[C@@]21CCN([C@H]2C[C@@H](NC(=O)OC(C)(C)C)C2)[C@@H](C)C1` [Compound 298], 500 to 1000 nM; with `CCc1cc2c(s1)CCO[C@@]21CCN(C[C@H]2C[C@@H](N)C2)[C@@H](C)C1` [Compound 299, 3-[[(2′S,4R)-2-ethyl-2′-methyl-spiro[6,7-dihydrothieno[3,2-c]pyran-4,4′-piperidine]-1′-yl]methyl]cyclobutanamine], 100 to 500 nM.
As for `CCc1cc2c(s1)CCO[C@@]21CCN(C[C@H]2C[C@@H](NC(=O)C3CC(F)(F)C3)C2)[C@@H](C)C1` [Compound 300, N-[3-[[(2′S,4R)-2-ethyl-2′-methyl-spiro[6,7-dihydrothieno[3,2-c]pyran-4,4′-piperidine]-1′-yl]methyl]cyclobutyl]-3,3-difluoro-cyclobutanecarboxamide], the figure is under 100 nM.
As to `CCc1cc2c(s1)CCO[C@@]21CCN(C[C@H]2C[C@@H](NC(=O)COCC(F)(F)F)C2)[C@@H](C)C1` [Compound 301, N-[3-[[(2′S,4R)-2-ethyl-2′-methyl-spiro[6,7-dihydrothieno[3,2-c]pyran-4,4′-piperidine]-1′-yl]methyl]cyclobutyl]-2-(2,2,2-trifluoroethoxy)acetamide], the IC50 was 100 to 500 nM.
In the case of `CCc1cc2c(s1)CCO[C@@]21CCN(C[C@H]2C[C@@H](NC(=O)OC)C2)[C@@H](C)C1` [Compound 302, methyl N-[3-[[(2′S,4R)-2-ethyl-2′-methyl-spiro[6,7-dihydrothieno[3,2-c]pyran-4,4′-piperidine]-1′-yl]methyl]cyclobutyl]carbamate], the IC50 was under 100 nM.
As for `CCc1cc2c(s1)CCO[C@@]21CCN(C[C@H]2C[C@@H](NC(=O)CC3(O)CCCCC3)C2)[C@@H](C)C1` [Compound 303], the figure is under 100 nM; as for `CCc1cc2c(s1)CCO[C@@]21CCN(C[C@H]2C[C@@H](NC(=O)c3cc(C)no3)C2)[C@@H](C)C1` [Compound 304], under 100 nM; as for `CCc1cc2c(s1)CCO[C@@]21CCN(C[C@H]2C[C@@H](NC(=O)[C@H]3C[C@@H]3C(F)F)C2)[C@@H](C)C1` [Compound 305], under 100 nM.
Take `CCCCC(O)C(=O)N[C@H]1C[C@@H](CN2CC[C@]3(C[C@@H]2C)OCCc2sc(CC)cc23)C1` (stereo partly shown) [Compound 306]: the IC50 was under 100 nM.
With `CCc1cc2c(s1)CCO[C@@]21CCN(C[C@H]2C[C@@H](NC(=O)c3ccc4cn[nH]c4c3)C2)[C@@H](C)C1` [Compound 307] the figure was under 100 nM; with `CCc1cc2c(s1)CCO[C@@]21CCN(C[C@H]2C[C@@H](NC(=O)c3oncc3C)C2)[C@@H](C)C1` [Compound 308], under 100 nM; with `CCc1cc2c(s1)CCO[C@@]21CCN(C[C@H]2C[C@@H](NC(=O)CC3CC3(F)F)C2)[C@@H](C)C1` (stereo partly shown) [Compound 309], under 100 nM.
As for `CCc1cc2c(s1)CCO[C@@]21CCN(C[C@H]2C[C@@H](NC(=O)c3cnn(CC(F)(F)F)c3)C2)[C@@H](C)C1` [Compound 310], the figure is 100 to 500 nM; as for `CCc1cc2c(s1)CCO[C@@]21CCN(C[C@H]2C[C@@H](NC(=O)c3cccc4c3OCCC4)C2)[C@@H](C)C1` [Compound 311], 100 to 500 nM.
Regarding `CCc1cc2c(s1)CCO[C@@]21CCN(C[C@H]2C[C@@H](NC(=O)C3CCCC(C)(C)C3)C2)[C@@H](C)C1` (stereo partly shown) [Compound 312], the IC50 is under 100 nM.
With `CCc1cc2c(s1)CCO[C@@]21CCN(C[C@H]2C[C@@H](NC(=O)Cc3cc(C)cc(F)c3)C2)[C@@H](C)C1` [Compound 313] the figure was under 100 nM; with `CCc1cc2c(s1)CCO[C@@]21CCN(C[C@H]2C[C@@H](NC(=O)CC3CCC(F)(F)CC3)C2)[C@@H](C)C1` [Compound 314], under 100 nM; with `CCc1cc2c(s1)CCO[C@@]21CCN(C[C@H]2C[C@@H](NC(=O)C3CCOC(C)(C)C3)C2)[C@@H](C)C1` (stereo partly shown) [Compound 315], under 100 nM.
With `CCc1cc2c(s1)CCO[C@@]21CCN(C[C@H]2C[C@@H](NC(=O)c3cnc4c(c3)CCC4)C2)[C@@H](C)C1` [Compound 316] the figure was under 100 nM; with `CCc1cc2c(s1)CCO[C@@]21CCN(C[C@H]2C[C@@H](NC(=O)c3ccn(CC(C)C)n3)C2)[C@@H](C)C1` [Compound 317], 100 to 500 nM.
As for `CCc1cc2c(s1)CCO[C@@]21CCN(C[C@H]2C[C@@H](NC(=O)C3CC(=O)C3(C)C)C2)[C@@H](C)C1` (stereo partly shown) [Compound 318], the IC50 is under 100 nM.
Regarding `CCc1cc2c(s1)CCO[C@@]21CCN(C[C@H]2C[C@@H](NC(=O)C(O)C(C)C)C2)[C@@H](C)C1` (stereo partly shown) [Compound 319], the IC50 is under 100 nM.
With `CCc1cc2c(s1)CCO[C@@]21CCN(C[C@H]2C[C@@H](NC(=O)c3cnc(C)s3)C2)[C@@H](C)C1` [Compound 320] the figure was under 100 nM.
As for `CCc1cc2c(s1)CCO[C@@]21CCN(C[C@H]2C[C@@H](NC(=O)c3cn(C4CCOCC4)nn3)C2)[C@@H](C)C1` [Compound 321], the figure is 100 to 500 nM; as for `CCc1cc2c(s1)CCO[C@@]21CCN(C[C@H]2C[C@@H](NC(=O)CCN3CCCCC3)C2)[C@@H](C)C1` [Compound 322], 100 to 500 nM; as for `CCc1cc2c(s1)CCO[C@@]21CCN(C[C@H]2C[C@@H](NC(=O)C3CC3c3ccc(F)cc3)C2)[C@@H](C)C1` (stereo partly shown) [Compound 323], under 100 nM.
With `CCc1cc2c(s1)CCO[C@@]21CCN(C[C@H]2C[C@@H](NC(=O)c3ccnc(C)n3)C2)[C@@H](C)C1` [Compound 324] the figure was under 100 nM; with `CCc1cc2c(s1)CCO[C@@]21CCN(C[C@H]2C[C@@H](NC(=O)C3CCC3(F)F)C2)[C@@H](C)C1` (stereo partly shown) [Compound 325], under 100 nM.
Turning to `CCc1cc2c(s1)CCO[C@@]21CCN(C[C@H]2C[C@@H](NC(=O)c3cc(C)[nH]n3)C2)[C@@H](C)C1` [Compound 326], the IC50 is under 100 nM.
As for `CCc1cc2c(s1)CCO[C@@]21CCN(C[C@H]2C[C@@H](NC(=O)C3(c4ccc(F)cn4)CC3)C2)[C@@H](C)C1` [Compound 327], the IC50 lay within 100 to 500 nM.
As for `CCc1cc2c(s1)CCO[C@@]21CCN(C[C@H]2C[C@@H](NC(=O)c3ccc(C)nn3)C2)[C@@H](C)C1` [Compound 328], the figure is 100 to 500 nM; as for `CCc1cc2c(s1)CCO[C@@]21CCN(C[C@H]2C[C@@H](NC(=O)c3cnc(C)nc3)C2)[C@@H](C)C1` [Compound 329], 100 to 500 nM.
`CCc1cc2c(s1)CCO[C@@]21CCN(C[C@H]2C[C@@H](NC(=O)C3(O)CCC3)C2)[C@@H](C)C1` [Compound 330]: the IC50 was under 100 nM.
As for `CCc1cc2c(s1)CCO[C@@]21CCN(C[C@H]2C[C@@H](NC(=O)C3CC(C(F)(F)F)C3)C2)[C@@H](C)C1` (stereo partly shown) [Compound 331], the IC50 fell in the range of 100 to 500 nM.
Turning to `CCc1cc2c(s1)CCO[C@@]21CCN(C[C@H]2C[C@@H](NC(=O)C(O)C3CC3)C2)[C@@H](C)C1` (stereo partly shown) [Compound 333], the IC50 is under 100 nM.
